Experimental data reported in patent publication US6790650B2, “Cacao endoproteinases and production of cocoa flavor from same” (Nestec S.A., priority 2000, dated 2004).
Values belong to the molecule of their own block, whether it stands above or below them. Square brackets hold non-standard residues; d marks the D form. Peptide text beside a SMILES is read from it. * marks the point of attachment. Sta = CC(C)C[C@H](N)[C@@H](O)CC(=O)O; Isovaleryl = CC(C)CC(=O)*

Legend:
[1] = test system: native aspartic endoproteinase (TcAP2), size exclusion purified pool #57-64; assay: Inhibitor sensitivity of the native purified aspartic endoproteinase (bovine hemoglobin hydrolysis, OPA read-out); assay type: biochemical, Theobroma cacao; settings: for Remaining Activity %: pH 3, 10 mg/ml bovine hemoglobin, pepstatin A 0.002 mM, 1,10 phenanthroline 2.0 mM, E-64 0.01 mM, DCI 0.1 mM, two replicates
Experimental: (§1) Aspartic endoproteinase activity was assayed at 42° C. in a 900 μl reaction medium containing 0.2M sodium citrate buffer pH3.0, 10 mg/ml bovine haemoglobin and 150 μl yeast culture supernatant. To stop the reaction aliquots (80 μl) were added to an equal volume of TCA 8% and the precipitated protein removed by centrifugation at 13000 g. 20 μl supernatant were mixed to 250 μl O-phthaldialdehyde (OPA) reagent (50 mM sodium tetraborate, 1% SDS, 5.96 mM OPA (dissolved in 1 ml methanol) and 1.43 mM β-mercaptoethanol. Activity was then determined measuring OD at 340 nm and expressed in pmole leucine produced per mg protein. For this, we use the following linear equation (OD340 nm=0.0156 pmoles+0.0088), which was determined using a standard curve with L-leucine (0 to 80 pmoles). Protein concentration was determined by Bradford assay (Biorad).
The inhibitor sensitivity of the native aspartic endoproteinase was determined in 300 μl reactions containing 200 mM sodium citrate, pH 3, 10 mg/ml bovine hemoglobin, and 5 μl of size exclusion purified pool #57-64 (2.4 μg protein/μl). The inhibitors were added to give a final concentration of 2 μM pepstatin, 2 mM 1,10 phenanthroline, 100 μM dichloroisocoumarin (DCI), 10 μM E-64. The enzyme activity was determined as described in example 5.

recombinant TcAP2 = assay: Effect of inhibitors on hydrolysis of bovine haemoglobin by recombinant TcAP2; assay type: biochemical, Theobroma cacao; settings: 2 μM pepstatin; for Effect on endoprotease activity of recombinant TcAP2: pH 3, 2 mM 1.10 phenanthroline, 100 μM DCI, 10 μM E64
Experimental: Inhibitors were added in the reaction at final concentration of 2 mM for 1.10 phenanthroline, 100 μM DCI, 10 μM E64 and 2 μM pepstatin. Activity at pH 3 without inhibitor was taken as 100% and correspond to 28.8±3.8 pmoles L-leucine produced/min/mg protein. Data are means of 3 measurements±SD;
as §1
The pepstatin insensitive activity (1.91±1.26 pmoles L-leucine/min/mg protein, 6.65%) is in the same range as that one measured for the control strain (2.26±1.26 pmoles L-leucine/min/mg protein, 7.8%). Other inhibitors such as 1.10 phenanthroline (metallo proteases), DCI (serine proteases) and E64 (cysteine proteases) have no effect on TcAP2 activity (FIG. 12).

[2] = test system: aspartic endoproteinase activity; settings: activity optimal at pH 3.5; cited from earlier work
[3] = test system: carboxypeptidase activity; settings: cited from earlier work
bovine haemoglobin = assay: Aspartic endoproteinase activity of recombinant TcAP2 in yeast culture supernatant; assay type: biochemical
Experimental: Small patches of cells were streaked on YPD agar plates and grown overnight at 28° C. The thin layers of grown cells were used to inoculate 50 ml DMI medium in 500 ml Erlenmeyers with 4 lateral baffles. DMI medium contains per liter: KH2PO4, 10 g; MgSO4,7H2O, 2.5 g; glucose, 20 g; Trace elements solution, 5.1 ml; Vitamins solution, 17 ml; urea, 3 g. Urea was dissolved in 15 ml water and sterile filtered. The initial pH of the medium was adjusted to 5.0. The cultures were shaken at 140 rpm on a rotary shaker at 28° C. for three days. Aliquots of the cultures were centrifuged at maximum speed (3000 g) for 15 min. and the supernatant used for the determination of the aspartic endoproteinase activity.
as §1

Inhibition of the purified native protease activity ([1]; 2 μM pepstatin, pH 3): inhibits completely
Remaining Activity % [1]: 0%
Molecule: CC(C)CC(=O)N[C@H](C(=O)N[C@H](C(=O)N[C@@H](CC(C)C)[C@@H](O)CC(=O)N[C@@H](C)C(=O)N[C@@H](CC(C)C)[C@@H](O)CC(=O)O)C(C)C)C(C)C [Pepstatin A] (Isovaleryl-VV[Sta]A[Sta]-OH)
Pepstatin insensitive activity (recombinant TcAP2; medium of pCY330-33, pH 3): 1.91±1.26 pmoles L-leucine/min/mg protein
Pepstatin insensitive activity, % of activity without inhibitor (recombinant TcAP2; activity at pH 3 without inhibitor taken as 100%): 6.65%
Effect on endoprotease activity of recombinant TcAP2 (recombinant TcAP2): completely inhibited
Inhibition of aspartic endoproteinase activity [2]: inhibited

Remaining Activity % [1]: 88%
Molecule: CC(C)C[C@H](NC(=O)[C@H]1O[C@@H]1C(=O)O)C(=O)NCCCCN=C(N)N [E-64]
Effect on endoprotease activity of recombinant TcAP2 (recombinant TcAP2): no effect

Activity at pH higher than 5 (bovine haemoglobin; pH higher than 5): slight activity
B1: TcAP2: aspartic endoproteinase from Theobroma cacao bean (clone CCN51), 514 amino acids; recombinant form secreted by Yarrowia lipolytica clone pCY330-33 (protein)
chain: MGTTIKVVVLSLFISSLLFSVVSSVSNDGLVRIGLKKMKLDPNNRLAARLDSKDGEALRAFIKKYRFRNNLGDSEETDIVALKNYMDAQYYGEIGIGTPTQKFTVIFDTGSSNLWVSSTKCYFSVACYFHEKYKASDSSTYKKDGKPASIQYGTGAISGFFSYDHVQVGDLVVKDQEFIEATKEPGLTFMVAKFDGILGLGFKEISVGDAVPVWYNMIKQGLIKEPVFSFWLNRNVDEEAGGEIVFGGVDPNHYKGKHTYVPVTQKGYWQFDMGDVLIADKPTGYCAGSCAAIADSGTSLLAGPSTVITMINHAIGATGVVSQECKAVVQQYGRTIIDLLIAEAQPQKICSQIGLCTFNGAHGVSTGIESVVDESNGKSSGVLRDAMCPACEMAVVWMQNQVRQNQTQDRILSYVNELCDRVPNPMGESAVDCGSLSSMPTISFTIGGKVFDLTPEEYILKVGEGSEAQCISGFTALDIPPPRGPLWILGDIFMGRYHTVFDFGKLRVGFAEAA
Activity at pH 3 without inhibitor (taken as 100%) (bovine haemoglobin; FIG. 12, means of 3 measurements±SD): 28.8±3.8 pmoles L-leucine produced/min/mg protein
Hydrolysis of bovine haemoglobin by supernatant from pCY330-33 (bovine haemoglobin; pH 3.0, 42° C., means of 3 measurements±SD (FIG. 10)): 25.8±1.45 pmoles L-leucine/min/mg protein

Further lines, the molecule ahead of its results:

Molecule: O=S(=O)(F)Cc1ccccc1 [PMSF]
Inhibition of carboxypeptidase activity [3]: inhibited

Molecule: O=c1oc(Cl)c(Cl)c2ccccc12 [DCI, dichloroisocoumarin]
Remaining Activity % [1]: 90%
Effect on endoprotease activity of recombinant TcAP2 (recombinant TcAP2): no effect

Molecule: c1cnc2c(c1)ccc1cccnc12 [1,10 Phenanthroline, 1,10 phenanthroline]
Remaining Activity % [1]: 86%
Effect on endoprotease activity of recombinant TcAP2 (recombinant TcAP2): no effect
